Results from patent US20250179000A1 (Sanford Burnham Prebys Medical Discovery Institute, priority 2021, published 2025).

Columns and labels:
Type in all cases: cell-based
Rat mGlu2 = target: T1, Rat mGlu2 (Rattus norvegicus, UniProt P31421); experiment: mGlu receptor in vitro assay, thallium flux through GIRK channels, rat mGlu2; details: PAM potency with EC20 glutamate
T1 construct: expressed in transfected cells; host or cells: HEK-293 co-expressing GIRK channels
Outline: (§1)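 HEK-293 cells co-expressing rat mGlu2 or mGlu3 and GIRK, dye-loaded with FluoZin2-AM, compound added about 2.5 min before thallium buffer with EC20 glutamate; potency from the 5-15 s fluorescence slope, 10-point 4-parameter fit. Calcium assay at mGlu3 used TREx293 mGlu3 Gα15 cells induced with tetracycline 20 ng/mL for 20 h.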

Human mGlu3 = Human mGlu3 (Homo sapiens, UniProt Q14832); experiment: mGlu receptor in vitro assay, human mGlu3
Human mGlu3, sequence (Q14832 23-879): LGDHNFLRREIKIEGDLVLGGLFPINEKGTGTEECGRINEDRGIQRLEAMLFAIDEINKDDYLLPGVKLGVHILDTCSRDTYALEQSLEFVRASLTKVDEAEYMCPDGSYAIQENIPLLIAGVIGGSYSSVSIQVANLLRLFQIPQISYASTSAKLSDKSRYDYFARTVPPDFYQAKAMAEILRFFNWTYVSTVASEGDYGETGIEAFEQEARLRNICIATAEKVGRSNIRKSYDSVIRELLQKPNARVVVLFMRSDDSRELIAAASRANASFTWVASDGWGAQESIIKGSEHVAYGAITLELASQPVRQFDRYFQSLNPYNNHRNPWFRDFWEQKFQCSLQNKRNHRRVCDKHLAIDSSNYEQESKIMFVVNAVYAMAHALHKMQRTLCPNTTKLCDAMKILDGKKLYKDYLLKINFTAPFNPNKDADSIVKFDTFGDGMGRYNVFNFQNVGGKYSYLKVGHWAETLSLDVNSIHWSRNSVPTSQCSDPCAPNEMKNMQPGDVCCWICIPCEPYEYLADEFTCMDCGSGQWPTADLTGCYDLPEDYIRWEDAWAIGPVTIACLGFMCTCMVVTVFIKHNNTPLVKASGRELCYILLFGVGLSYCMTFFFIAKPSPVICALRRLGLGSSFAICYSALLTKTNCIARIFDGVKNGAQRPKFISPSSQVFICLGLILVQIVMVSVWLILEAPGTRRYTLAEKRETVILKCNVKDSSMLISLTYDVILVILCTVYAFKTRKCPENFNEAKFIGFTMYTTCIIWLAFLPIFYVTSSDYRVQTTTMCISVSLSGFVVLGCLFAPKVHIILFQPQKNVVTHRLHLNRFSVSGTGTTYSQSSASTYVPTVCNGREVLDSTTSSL

Human mGlu2 = Human mGlu2 (Homo sapiens, UniProt Q14416); experiment: mGlu receptor in vitro assay, human mGlu2
Human mGlu2, sequence (Q14416 19-872): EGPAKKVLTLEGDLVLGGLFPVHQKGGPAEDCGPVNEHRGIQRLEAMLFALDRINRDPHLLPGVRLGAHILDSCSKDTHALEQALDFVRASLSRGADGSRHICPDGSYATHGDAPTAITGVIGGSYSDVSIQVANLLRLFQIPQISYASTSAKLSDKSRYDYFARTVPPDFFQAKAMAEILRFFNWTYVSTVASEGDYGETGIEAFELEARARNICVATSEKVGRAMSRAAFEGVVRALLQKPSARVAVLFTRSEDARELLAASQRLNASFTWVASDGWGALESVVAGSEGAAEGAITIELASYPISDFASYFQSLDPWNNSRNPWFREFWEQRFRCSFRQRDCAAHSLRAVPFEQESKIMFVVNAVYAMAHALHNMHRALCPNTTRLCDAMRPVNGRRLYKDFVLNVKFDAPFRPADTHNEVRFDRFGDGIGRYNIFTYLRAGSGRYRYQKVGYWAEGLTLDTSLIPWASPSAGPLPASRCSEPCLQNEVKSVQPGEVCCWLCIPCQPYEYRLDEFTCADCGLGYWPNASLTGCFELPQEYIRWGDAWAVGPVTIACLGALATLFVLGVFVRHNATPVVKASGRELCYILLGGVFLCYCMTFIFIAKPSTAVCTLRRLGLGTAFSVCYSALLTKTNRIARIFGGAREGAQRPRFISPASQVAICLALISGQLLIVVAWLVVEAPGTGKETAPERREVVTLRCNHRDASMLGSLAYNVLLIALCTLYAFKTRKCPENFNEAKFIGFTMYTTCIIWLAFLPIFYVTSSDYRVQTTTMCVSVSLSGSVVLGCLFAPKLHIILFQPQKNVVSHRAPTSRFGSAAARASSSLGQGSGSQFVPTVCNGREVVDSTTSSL

Rat mGlu3 = target: T2, Rat mGlu3 (Rattus norvegicus, UniProt P31422); experiment: mGlu receptor in vitro assay (thallium flux through GIRK channels / calcium assay), rat mGlu3; details: PAM potency with EC20 glutamate
T2 construct: expressed in transfected cells; host or cells: HEK-293 co-expressing GIRK channels
T2 sequence (P31422 23-879): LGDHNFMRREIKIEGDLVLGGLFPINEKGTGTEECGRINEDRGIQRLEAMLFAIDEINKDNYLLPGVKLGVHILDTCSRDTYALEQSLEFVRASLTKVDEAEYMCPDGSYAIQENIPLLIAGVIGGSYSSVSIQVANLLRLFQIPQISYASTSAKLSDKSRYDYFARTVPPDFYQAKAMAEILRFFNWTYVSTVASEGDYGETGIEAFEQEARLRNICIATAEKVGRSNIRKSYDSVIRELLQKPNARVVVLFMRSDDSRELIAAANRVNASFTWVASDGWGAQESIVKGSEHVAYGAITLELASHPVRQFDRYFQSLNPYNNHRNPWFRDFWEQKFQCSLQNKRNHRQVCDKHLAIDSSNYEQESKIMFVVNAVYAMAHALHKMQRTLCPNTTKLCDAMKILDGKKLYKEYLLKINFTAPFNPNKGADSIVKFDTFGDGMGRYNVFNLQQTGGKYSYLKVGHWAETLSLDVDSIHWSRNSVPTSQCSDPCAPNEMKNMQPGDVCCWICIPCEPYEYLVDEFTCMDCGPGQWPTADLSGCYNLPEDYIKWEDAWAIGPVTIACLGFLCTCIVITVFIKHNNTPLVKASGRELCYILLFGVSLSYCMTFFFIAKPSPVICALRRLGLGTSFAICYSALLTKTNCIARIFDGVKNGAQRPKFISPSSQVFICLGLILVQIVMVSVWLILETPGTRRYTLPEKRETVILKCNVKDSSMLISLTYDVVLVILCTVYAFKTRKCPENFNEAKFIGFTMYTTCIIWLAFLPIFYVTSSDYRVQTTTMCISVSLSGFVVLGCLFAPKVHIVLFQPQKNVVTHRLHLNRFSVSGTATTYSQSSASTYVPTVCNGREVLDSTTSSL
Outline: as §1

T1 sequence (P31421 19-872): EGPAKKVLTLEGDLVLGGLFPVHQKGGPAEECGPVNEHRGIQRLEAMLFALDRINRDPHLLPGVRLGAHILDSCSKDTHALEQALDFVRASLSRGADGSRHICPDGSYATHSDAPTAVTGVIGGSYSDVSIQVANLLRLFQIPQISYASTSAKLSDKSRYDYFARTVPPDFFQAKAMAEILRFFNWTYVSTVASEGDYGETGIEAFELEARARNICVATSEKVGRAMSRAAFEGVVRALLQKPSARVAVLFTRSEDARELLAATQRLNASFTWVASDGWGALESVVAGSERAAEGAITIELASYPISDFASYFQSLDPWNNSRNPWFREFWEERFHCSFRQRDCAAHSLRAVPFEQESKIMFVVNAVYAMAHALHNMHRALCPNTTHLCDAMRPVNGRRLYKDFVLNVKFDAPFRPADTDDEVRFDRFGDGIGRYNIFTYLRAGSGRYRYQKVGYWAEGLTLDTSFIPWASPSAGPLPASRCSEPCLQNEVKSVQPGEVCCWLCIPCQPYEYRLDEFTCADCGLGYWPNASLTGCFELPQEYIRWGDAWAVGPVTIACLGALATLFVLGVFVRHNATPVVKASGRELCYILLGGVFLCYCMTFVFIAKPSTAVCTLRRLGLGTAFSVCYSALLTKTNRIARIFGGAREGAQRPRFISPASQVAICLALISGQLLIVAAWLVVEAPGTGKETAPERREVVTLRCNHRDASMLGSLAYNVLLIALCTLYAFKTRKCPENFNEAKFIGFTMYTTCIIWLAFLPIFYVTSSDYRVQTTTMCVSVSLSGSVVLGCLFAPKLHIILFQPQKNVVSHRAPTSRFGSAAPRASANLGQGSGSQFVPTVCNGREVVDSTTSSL

Row | SMILES | EC50 (Rat mGlu2) | EC50 (Human mGlu3) | EC50 (Human mGlu2) | EC50 (Rat mGlu3)
1 | CCCC(=O)c1ccc(OCCCCCOc2ccc(C(=O)O)c(Cl)c2)c(C)c1O [Example 54, 4-[5-(4-Butanoyl-3-hydroxy-2-methylphenoxy)pentyloxy]-2-chlorobenzoic acid] | 8 nM | 300 nM | 6 nM | 577 nM
2 | CCCC(=O)c1ccc(OCCOCCOc2cccc(C(=O)O)c2C)c(C)c1O [Example 7, 3-(2-(2-(4-Butyryl-3-hydroxy-2-methylphenoxy)ethoxy)ethoxy)-2-methylbenzoic acid] | 158 nM | > 10000 nM | 116 nM | > 30000 nM
3 | Cc1c(OCc2cccc(-c3cccc(C(=O)NC#N)c3)c2)ccc(C(=O)CC(C)(C)C)c1O [compound 162, N-Cyano-3′-((4-(3,3-dimethylbutanoyl)-3-hydroxy-2-methylphenoxy)methyl)-[1,1′-biphenyl]-3-carboxamide] | 166 nM | 593 nM | 234 nM | 145 nM
4 | CCCC(=O)c1ccc(OC/C=C/COc2cccc(C(=O)O)c2C)c(C)c1O [Example 8, (E)-3-((4-(4-Butyryl-3-hydroxy-2-methylphenoxy)but-2-en-1-yl)oxy)-2-methylbenzoic acid] | 19 nM | 534 nM | 10 nM | 489 nM
5 | CCCC(=O)c1ccc(OCCCCCOc2ccc(C(=O)O)c(F)c2)c(C)c1O [Example 45, 4-[5-(4-Butanoyl-3-hydroxy-2-methylphenoxy)pentyloxy]-2-fluorobenzoic acid] | 66 nM | 943 nM | 13 nM | 1090 nM

Other lines, results leading:

Row | EC50 (Rat mGlu2) | EC50 (Human mGlu3) | EC50 (Human mGlu2) | EC50 (Rat mGlu3) | SMILES
6 | 254 nM | 31 nM | 76 nM | 53 nM | COc1cc(F)c(C(=O)O)cc1-c1cnc(COc2ccc(C(=O)CC(C)(C)C)c(O)c2C)cn1 [compound 130, 5-(5-((4-(3,3-Dimethylbutanoyl)-3-hydroxy-2-methylphenoxy)methyl)pyrazin-2-yl)-2-fluoro-4-methoxybenzoic acid]
7 | 91 nM | 327 nM | 45 nM | 491 nM | Cc1c(OCCOCCOc2ccc(C(=O)CC(C)(C)C)c(O)c2C)cccc1C(=O)O [Example 23, 3-(2-{2-[4-(3,3-Dimethylbutanoyl)-3-hydroxy-2-methylphenoxy]ethoxy}ethoxy)-2-methylbenzoic acid]
8 | 110 nM | 242 nM | 39 nM | 559 nM | COc1cc(F)c(C(=O)O)cc1-c1cccc(COc2ccc(C(=O)CC(C)(C)C)c(O)c2C)c1 [Example 164, 3′-((4-(3,3-dimethylbutanoyl)-3-hydroxy-2-methylphenoxy)methyl)-4-fluoro-6-methoxy-[1,1′-biphenyl]-3-carboxylic acid]
9 | 117 nM | 213 nM | 234 nM | 28 nM | COc1ccc(C(=O)O)cc1-c1cnc(COc2ccc(C(=O)CC(C)(C)C)c(O)c2C)cn1 [compound 116, 3-(5-((4-(3,3-Dimethylbutanoyl)-3-hydroxy-2-methylphenoxy)methyl)pyrazin-2-yl)-4-methoxybenzoic acid]
10 | 356 nM | 156 nM | 355 nM | 43 nM | Cc1c(OCc2cnc(-c3ccc(F)c(C(=O)O)c3)cn2)ccc(C(=O)CC(C)(C)C)c1O [compound 115, 5-(5-((4-(3,3-Dimethylbutanoyl)-3-hydroxy-2-methylphenoxy)methyl)pyrazin-2-yl)-2-fluorobenzoic acid]
11 | 43 nM | > 10000 nM | 21 nM | > 10000 nM | CCCC(=O)c1ccc(OCCCCCOc2ccc(C(=O)O)cc2Cl)c(C)c1O [Example 50, 4-[5-(4-Butanoyl-3-hydroxy-2-methylphenoxy)pentyloxy]-3-chlorobenzoic acid]
12 | 456 nM | 79 nM | 144 nM | 91 nM | COc1ccc(C(=O)O)cc1C#CCCCOc1ccc(C(=O)CC(C)(C)C)c(O)c1C [Example 2, 3-(5-(4-(3,3-Dimethylbutanoyl)-3-hydroxy-2-methylphenoxy)pent-1-yn-1-yl)-4-methoxybenzoic acid]
